Test results from US12708630B2, “Combined therapy of 4′-thio-5-aza-2′-deoxycytidine and Venetoclax” (PINOTBIO, INC., priority 2021, dated 2026).

Tests used:
Test in all cases: drug activity profiling cytotoxicity
Assay type in all cases: cell-based
[1] = test system: T24; settings: Homo sapiens, T-24; T24 cell line, Bladder; read-out: Aza-T-dCyd IC50
Method: (§1) To obtain a biomarker for Aza-T-dCyd, drug activity profiling analysis was performed to evaluate the cytotoxicity of 200 cell lines.
(§2) The drug responsiveness analysis of Aza-T-dCyd through drug activity profiling and genomic analysis of 200 cell lines confirmed the potent efficacy of Aza-T-dCyd in various solid tumors (Table 2).

[2] = test system: J-RT3-T3-5; settings: Homo sapiens; J-RT3-T3-5 cell line, T-cell Lymphoma; read-out: Aza-T-dCyd IC50
Method: as §1, §2

[3] = test system: JAR; settings: JAR cell line, Placenta; read-out: Aza-T-dCyd IC50
Method: as §1, §2

[4] = test system: U-138MG; settings: Homo sapiens, U138-MG; U-138MG cell line, CNS (Glioma); read-out: Aza-T-dCyd IC50
Method: as §1, §2

[5] = test system: SW1417; settings: Homo sapiens; SW1417 cell line, Colon; read-out: Aza-T-dCyd IC50
Method: as §1, §2

[6] = test system: NCIH446; settings: Homo sapiens, NCI-H446; NCIH446 cell line, Lung (SCLC); read-out: Aza-T-dCyd IC50
Method: as §1, §2

[7] = test system: OE33; settings: Homo sapiens; OE33 cell line, Head and Neck; read-out: Aza-T-dCyd IC50
Method: as §1, §2

[8] = test system: CCRFCEM; settings: Homo sapiens, CCRF-CEM; CCRFCEM cell line, ALL; read-out: Aza-T-dCyd IC50
Method: as §1, §2

[9] = test system: DB; settings: Homo sapiens; DB cell line, B-cell lymphoma; read-out: Aza-T-dCyd IC50
Method: as §1, §2

[10] = test system: KG-1; settings: Homo sapiens; KG-1 cell line, AML; read-out: Aza-T-dCyd IC50
Method: as §1, §2

[11] = test system: EFM-19; settings: Homo sapiens; EFM-19 cell line, Breast; read-out: Aza-T-dCyd IC50
Method: as §1, §2

[12] = test system: A204; settings: Homo sapiens; A204 cell line, Sarcoma; read-out: Aza-T-dCyd IC50
Method: as §1, §2

[13] = test system: SK-MEL-3; settings: Homo sapiens, SK-MEL3; SK-MEL-3 cell line, Skin (Melanoma); read-out: Aza-T-dCyd IC50
Method: as §1, §2

[14] = test system: RPMI-7951; settings: Homo sapiens; RPMI-7951 cell line, Skin (Melanoma); read-out: Aza-T-dCyd IC50
Method: as §1, §2

[15] = test system: DLD-1; settings: Homo sapiens; DLD-1 cell line, Colon; read-out: Aza-T-dCyd IC50
Method: as §1, §2

[16] = test system: SK-N-FI; settings: Homo sapiens; SK-N-FI cell line, CNS (Neuroblastoma); read-out: Aza-T-dCyd IC50
Method: as §1, §2

[17] = test system: SW579; settings: SW579 cell line, Endocrine (Thyroid); read-out: Aza-T-dCyd IC50
Method: as §1, §2

[18] = test system: DU145; settings: Homo sapiens, DU-145; DU145 cell line, Prostate; read-out: Aza-T-dCyd IC50
Method: as §1, §2

[19] = test system: MDA MB 231; settings: Homo sapiens; MDA MB 231 cell line, Breast; read-out: Aza-T-dCyd IC50
Method: as §1, §2

[20] = test system: MeWo; settings: Homo sapiens; MeWo cell line, Skin (Melanoma); read-out: Aza-T-dCyd IC50
Method: as §1, §2

[21] = test system: SW872; settings: Homo sapiens; SW872 cell line, Sarcoma; read-out: Aza-T-dCyd IC50
Method: as §1, §2

[22] = test system: WiDr; settings: Homo sapiens; WiDr cell line, Colon; read-out: Aza-T-dCyd IC50
Method: as §1, §2

[23] = test system: YAPC; settings: Homo sapiens; YAPC cell line, Pancreas; read-out: Aza-T-dCyd IC50
Method: as §1, §2

[24] = test system: SW962; settings: Homo sapiens, SW 962; SW962 cell line, Female GU (Vulva); read-out: Aza-T-dCyd IC50
Method: as §1, §2

[25] = test system: TT; settings: Homo sapiens; TT cell line, Endocrine (Thyroid); read-out: Aza-T-dCyd IC50
Method: as §1, §2

[26] = test system: RPMI 8226; settings: Homo sapiens; RPMI 8226 cell line, B-cell myeloma; read-out: Aza-T-dCyd IC50
Method: as §1, §2

[27] = test system: BE(2)C; settings: Homo sapiens; BE(2)C cell line, CNS (Neuroblastoma); read-out: Aza-T-dCyd IC50
Method: as §1, §2

[28] = test system: T47D; settings: Homo sapiens; T47D cell line, Breast; read-out: Aza-T-dCyd IC50
Method: as §1, §2

[29] = test system: Hs 852.T; settings: Hs 852.T cell line, Skin (Melanoma); read-out: Aza-T-dCyd IC50
Method: as §1, §2

[30] = test system: U-87 MG; settings: Homo sapiens; U-87 MG cell line, CNS (Glioma); read-out: Aza-T-dCyd IC50
Method: as §1, §2

[31] = test system: G-361; settings: Homo sapiens; G-361 cell line, Skin (Melanoma); read-out: Aza-T-dCyd IC50
Method: as §1, §2

Nc1ncn([C@H]2CC(O)[C@@H](CO)S2)c(=O)n1 (stereo partly shown) [Aza-T-dCyd, 4′-thio-5-aza-2′-deoxycytidine]
IC50 [1]: 1530 nM | IC50 [2]: 106 nM | IC50 [3]: 296 nM | IC50 [4]: > 10000 nM | IC50 [5]: > 10000 nM | IC50 [6]: 3040 nM | IC50 [7]: 161 nM | IC50 [8]: 119 nM | IC50 [9]: 135 nM | IC50 [10]: 461 nM | IC50 [11]: 3950 nM | IC50 [12]: 157 nM | IC50 [13]: 522 nM | IC50 [14]: 527 nM | IC50 [15]: 221 nM | IC50 [16]: 2710 nM | IC50 [17]: 1050 nM | IC50 [18]: 432 nM | IC50 [19]: 210 nM | IC50 [20]: 1040 nM | IC50 [21]: 730 nM | IC50 [22]: 263 nM | IC50 [23]: 1050 nM | IC50 [24]: > 10000 nM | IC50 [25]: > 10000 nM | IC50 [26]: 3270 nM | IC50 [27]: 373 nM | IC50 [28]: > 10000 nM | IC50 [29]: > 10000 nM | IC50 [30]: 1640 nM | IC50 [31]: 1080 nM
